The text below walks through data of patent US20220105051A1, “COMPOUNDS FOR INCREASING MHC-I EXPRESSION AND MODULATING HISTONE DEACETYLASE ACTIVITY” (Cava Healthcare Inc., priority 2019, published 2022).

Entries after “also recorded” stand apart in the source; their conditions may differ.

Data set [1] relates to A9 metastatic tumour cells. Nature of the data set: In vivo tumour trial. Further details: species or system C57BL/6 mice. Conditions: daily i.p. for 12 days; for anti-tumour effect compared among the treatments / tumour volume / tumour growth compared to vehicle control: A9 tumours; for anti-tumour effect compared among the treatments: 5.2 mg/kg; for tumour volume / tumour growth compared to vehicle control / body weight: P02-113 and P03-97-1 5.2 mg/kg, TSA 0.5 mg/kg. How it is done:
The metastatic cell line, A9, was grown in the DMEM, as previously described without, the addition of antibiotics (penicillin and streptomycin, P/S). Once cells reached 75-80% confluence, they were trypsinized (0.05%, Gibco) and washed with HBSS (Hanks balanced salt solution). The cells were counted using the Bio-RAD TC20 automated cell counter and suspended to a concentration of […] in HBSS. Thirty-two synergistic female C57BL/6 mice, between the ages 6-8 weeks, were subcutaneously injected in the right flank with 50 μL containing 5×10^4 A9 metastatic tumour cells. Seven days following tumour inoculation i.p. treatment began daily for 12 days. Four treatment groups were studied, with eight animals per group. […] Body weights were measured three times a week and once tumours developed they were measured with calipers and tumour volume was calculated. Twelve days after starting treatment, mice were euthanized and tumours were collected and weighed. The tumours were then processed for flow cytometry analysis. Tumours were cut into small pieces and incubated RPMI (Gibco; with P/S 0.5%, Sodium pyruvate 1%, and L-glutamine 1%) and 3 mg/mL collagenase A (Roche) for one hour at 37° C. with shaking. Dissociated tumour cells were passed through a 100 μm filter and spun down at 15,000×RCF for 3 minutes. The pellet was washed once in FACs buffer (2% FBS in PBS) and spun down. The pellet was next suspended in red blood cell (RBC) lysis buffer and kept at room temperature for 5 minutes before being neutralized by the addition of 5 ml of PBS and spun down. If pellets were still found to contain RBCs this step was repeated. Once all RBCs were removed cells were suspended in FACs buffer to a concentration of 10^7 cells/mL. A total volume of 200 ul of cells from each tumour were added to a 96 well plate (Falcon) and incubated with Fc Blocker (Biolegend, 1:400) for twenty minutes at 4° C. The 96 well plate was spun down at 1,200 rmp for three minutes and supernatant was removed. The cells were then suspended in 150 ul of FACs buffer containing anti-CD8a (PE-Cy7, 1:200, eBioscience) and CD4 (APC, 1:200, Biolegend) antibodies and incubated at 4° Celsius for 20 minutes. The cells were washed twice and spun down using FACs buffer before being to flow cytometry tubes in a final volume of 200 ul of FACs buffer containing 7AAD (Biolegend 1:200). Flow cytometry was performed on LSRII (BDBiosciences) and analysis was done using FlowJo (Flow cytometry Analysis Software).
Treatment of tumour-bearing mice with identified compounds. 5×10^4 A9 cells suspended in HBSS were subcutaneously (s.c.) transplanted into the right flank of 32 eight-week-old female C57BI/6 mice, as previously described 75. […] Body weight and tumours (once established) were measured every 2-4 days (more often as tumour size increased). Tumours were measured using calipers and volume was calculated as following: tumour volume=length×width^2. The tumour growth rate was assessed using methods previously described^28.

The test system of another data set is class I/II HDACs. The data set is described as follows: HDAC-Glo I/II Assay in A9 cells. Type of data set: cell-based, murine. Conditions: for HDAC activity at the lowest concentrations: 1 nM-100 nM; for class I/II HDAC activity: 1 nM-1 μM; for HDAC activity at higher concentrations: up to 1 uM. The method, then:
Compounds P02-113 and P03-97-1 were analyzed for their effect on histone deacetylase activity in the A9 cell line, using the HDAC-Glo™ I/II Assay and Screening System (Promega). The linear range was established for the A9 cells in a black-walled, clear-bottomed 96 well plate (PerkinElmer). Cells were diluted to 10^5 cells/mL and serial diluted by two fold, to a final concentration of 98 cells/ml. All dilutions were plated in triplicates in a volume of 100 ul per well. Cells were left overnight at 37° C. for 24 hours before addition of HDAC class I/II reagent. Luminescence was read after 30 minute incubation with HDAC class I/II reagent. After determination of an optimal cell density of 30,000 cells/well, cells were plated in 96 well plate and left for 24 hours at 37° C. Media was used as a blank control, as well a positive control was included consisting of HeLa cells provided in the HDAC assay kit. […] HDAC class I/II reagent was then added and incubated for 30 minutes before luminescence was measured using the Infinite M200 (Tecan) and i-control software (Tecan).
HDAC assays. To assess the effect of the compounds on the relative activity of histone deacetylase (HDAC) class I and II enzymes in the A9 cell line, we used the HDAC-Glo™ I/II Assay and Screening System (Promega). The linear range was established for the A9 cells following the manufacturer's instructions. Thirty thousand cells per well were plated in clear-bottom 96-well plates (Perkin Elmer) and plates were incubated at 37° C. […] Cell culture media was used as a blank control and HeLa cells provided in the HDAC assay kit were used as a positive control. HDAC class I/II reagent was then added and incubated for 30 minutes before luminescence was measured using the Infinite M200 (Tecan) and i-control software (Tecan).

In the case of `CC(C)=CCCCc1ccc(C)cc1O` [P02-113], in data set [1], the “anti-tumour effect compared among the treatments” value is recorded as “not found to be as significant as P03-97-1 or TSA; also recorded: slightly larger”, the “tumour volume / tumour growth compared to vehicle control” value was “reduced; also recorded: statistically significant reduction of tumour volume” and the body weight entry is given as “remained stable; also recorded: no significant changes”. Besides, the “tumour volume / tumour growth compared to vehicle control” value in data set [1] (listed as PC-02-113) is on record as “suppresses growth of tumors”. Moreover, in the data set on class I/II HDACs, the “concentration of peak in HDAC activity” value was “around 180 nM”, the “HDAC activity at the lowest concentrations” value is “induction of HDAC activity”, the “class I/II HDAC activity” value is on record as “increase in class I/II HDAC activity” and the “HDAC activity at higher concentrations” value is listed as “started to reduce it effect at higher concentrations; also recorded: started to reduce the effect at higher concentrations”.

`COc1ccc(C(C)CCC=C(C)C)c(O)c1` (stereo not drawn) [P03-97-1]: in data set [1], the “anti-tumour effect compared among the treatments” value is reported as “significant anti-tumour effect; also recorded: greater reduction in tumour burden”, the “tumour volume / tumour growth compared to vehicle control” value was “reduced; also recorded: statistically significant reduction of tumour volume; also recorded: suppresses growth of tumors” and the body weight entry was “remained stable; also recorded: no significant changes”. In addition, in the data set with class I/II HDACs, the “concentration of peak in HDAC activity” value is listed as “around 180 nM”, the “HDAC activity at the lowest concentrations” value is on record as “induction of HDAC activity”, the “class I/II HDAC activity” value is listed as “increase in class I/II HDAC activity” and the “HDAC activity at higher concentrations” value was “maintained peak levels of HDAC activity”.
